Source: PubChem BioAssay AID2060896 (Molecular Pharmacology Branch, DTP, NCI, 2025)

Tested on: 941728-121-R-J1-PDC complex spheroid viability
Assay: Anticancer human tumor 941728-121-R-J1-PDC patient-derived lung adenocarcinoma cell line growth inhibition [RAS]
Conditions: for IC50: curve of first compound; for viability, T/C: stronger effect = lower value
Method in brief: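 Tumour cells grown as complex spheroids with HUVEC endothelial cells and mesenchymal stem cells, treated with RAS pathway inhibitor combinations. Each agent spans half-log steps from near clinical Cmax, or 10 microM where Cmax is unknown.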

[1] = second compound 0.000949 µM, first compound 0.00316 µM
[2] = second compound 0.000949 µM, first compound 0.01 µM
[3] = second compound 0.000949 µM, first compound 0.0316 µM
[4] = second compound 0.000949 µM, first compound 0.1 µM
[5] = second compound 0.003 µM, first compound 0.00316 µM
[6] = second compound 0.003 µM, first compound 0.01 µM
[7] = second compound 0.003 µM, first compound 0.0316 µM
[8] = second compound 0.003 µM, first compound 0.1 µM
[9] = second compound 0.00949 µM, first compound 0.00316 µM
[10] = second compound 0.00949 µM, first compound 0.01 µM
[11] = second compound 0.00949 µM, first compound 0.0316 µM
[12] = second compound 0.00949 µM, first compound 0.1 µM
[13] = second compound 0.03 µM, first compound 0.00316 µM
[14] = second compound 0.03 µM, first compound 0.01 µM
[15] = second compound 0.03 µM, first compound 0.0316 µM
[16] = second compound 0.03 µM, first compound 0.1 µM
[17] = second compound 0.0949 µM, first compound 0.00316 µM
[18] = second compound 0.0949 µM, first compound 0.01 µM
[19] = second compound 0.0949 µM, first compound 0.0316 µM
[20] = second compound 0.0949 µM, first compound 0.1 µM
[21] = second compound 0.3 µM, first compound 0.00316 µM
[22] = second compound 0.3 µM, first compound 0.01 µM
[23] = second compound 0.3 µM, first compound 0.0316 µM
[24] = second compound 0.3 µM, first compound 0.1 µM
[25] = second compound 0.000949 µM, first compound 0.316 µM
[26] = second compound 0.000949 µM, first compound 1 µM
[27] = second compound 0.003 µM, first compound 0.316 µM
[28] = second compound 0.003 µM, first compound 1 µM
[29] = second compound 0.00949 µM, first compound 0.316 µM
[30] = second compound 0.00949 µM, first compound 1 µM
[31] = second compound 0.03 µM, first compound 0.316 µM
[32] = second compound 0.03 µM, first compound 1 µM
[33] = second compound 0.0949 µM, first compound 0.316 µM
[34] = second compound 0.0949 µM, first compound 1 µM
[35] = second compound 0.3 µM, first compound 0.316 µM
[36] = second compound 0.3 µM, first compound 1 µM
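Note: spheroids exposed to compounds for 7 days before readout.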
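Throughout, for viability, T/C: 100% = DMSO vehicle control viability.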

CC(C)n1nc(-c2ccc3oc(N)nc3c2)c2c(N)ncnc21 + CCn1c(-c2cc(N3CCN(C)CC3)cnc2C(C)OC)c2c3cc(ccc31)-c1csc(n1)CC(NC(=O)C1CC1C)C(=O)N1CCCC(N1)C(=O)OCC(C)(C)C2
IC50 (second compound 0.000949 µM): < 0.316 nM | IC50 (second compound 0.003 µM): < 0.316 nM | IC50 (second compound 0.00949 µM): < 0.316 nM | IC50 (second compound 0.03 µM): < 0.316 nM | IC50 (second compound 0.0949 µM): < 0.316 nM | IC50 (second compound 0.3 µM): < 0.316 nM | viability, T/C (second compound 0.000949 µM, first compound 0.000316 µM): 25.5% | viability, T/C (second compound 0.000949 µM, first compound 0.001 µM): 27.6% | viability, T/C [1]: 18.6% | viability, T/C [2]: 20.2% | viability, T/C [3]: 16.9% | viability, T/C [4]: 11.1% | viability, T/C (second compound 0.003 µM, first compound 0.000316 µM): 24.6% | viability, T/C (second compound 0.003 µM, first compound 0.001 µM): 20.8% | viability, T/C [5]: 16% | viability, T/C [6]: 14.4% | viability, T/C [7]: 10.9% | viability, T/C [8]: 8.48% | viability, T/C (second compound 0.00949 µM, first compound 0.000316 µM): 17.6% | viability, T/C (second compound 0.00949 µM, first compound 0.001 µM): 16% | viability, T/C [9]: 16.3% | viability, T/C [10]: 11.6% | viability, T/C [11]: 8.78% | viability, T/C [12]: 5.45% | viability, T/C (second compound 0.03 µM, first compound 0.000316 µM): 13.4% | viability, T/C (second compound 0.03 µM, first compound 0.001 µM): 14.6% | viability, T/C [13]: 13.4% | viability, T/C [14]: 10.7% | viability, T/C [15]: 6.44% | viability, T/C [16]: 6.86% | viability, T/C (second compound 0.0949 µM, first compound 0.000316 µM): 12.7% | viability, T/C (second compound 0.0949 µM, first compound 0.001 µM): 14.2% | viability, T/C [17]: 12.8% | viability, T/C [18]: 11.6% | viability, T/C [19]: 6.3% | viability, T/C [20]: 6.4% | viability, T/C (second compound 0.3 µM, first compound 0.000316 µM): 13.4% | viability, T/C (second compound 0.3 µM, first compound 0.001 µM): 13.9% | viability, T/C [21]: 12.9% | viability, T/C [22]: 11.2% | viability, T/C [23]: 7.62% | viability, T/C [24]: 7.03%

CCN1CCN(Cc2ccc(Nc3ncc(F)c(-c4cc(F)c5nc(C)n(C(C)C)c5c4)n3)nc2)CC1 + CCn1c(-c2cc(N3CCN(C)CC3)cnc2C(C)OC)c2c3cc(ccc31)-c1csc(n1)CC(NC(=O)C1CC1C)C(=O)N1CCCC(N1)C(=O)OCC(C)(C)C2
IC50 (second compound 0.000949 µM): < 3.16 nM | IC50 (second compound 0.003 µM): < 3.16 nM | IC50 (second compound 0.00949 µM): < 3.16 nM | IC50 (second compound 0.03 µM): < 3.16 nM | IC50 (second compound 0.0949 µM): < 3.16 nM | IC50 (second compound 0.3 µM): < 3.16 nM | viability, T/C [1]: 27% | viability, T/C [2]: 29.4% | viability, T/C [3]: 18.9% | viability, T/C [4]: 27.1% | viability, T/C [25]: 23.3% | viability, T/C [26]: 16.6% | viability, T/C [5]: 22.8% | viability, T/C [6]: 19.8% | viability, T/C [7]: 14.4% | viability, T/C [8]: 18.9% | viability, T/C [27]: 17.7% | viability, T/C [28]: 9.4% | viability, T/C [9]: 15.1% | viability, T/C [10]: 13.4% | viability, T/C [11]: 13.7% | viability, T/C [12]: 11.1% | viability, T/C [29]: 12.1% | viability, T/C [30]: 10.4% | viability, T/C [13]: 13.2% | viability, T/C [14]: 14.1% | viability, T/C [15]: 11.8% | viability, T/C [16]: 10.1% | viability, T/C [31]: 6.16% | viability, T/C [32]: 11.3% | viability, T/C [17]: 13.4% | viability, T/C [18]: 11.8% | viability, T/C [19]: 10.1% | viability, T/C [20]: 9.14% | viability, T/C [33]: 7.16% | viability, T/C [34]: 9.08% | viability, T/C [21]: 11.3% | viability, T/C [22]: 11.9% | viability, T/C [23]: 11.7% | viability, T/C [24]: 8.41% | viability, T/C [35]: 6.3% | viability, T/C [36]: 10.6%

C[C@@H](NC(=O)c1ncnc(N)c1Cl)c1ncc(C(=O)Nc2cc(C(F)(F)F)c(Cl)cn2)s1 + CCn1c(-c2cc(N3CCN(C)CC3)cnc2C(C)OC)c2c3cc(ccc31)-c1csc(n1)CC(NC(=O)C1CC1C)C(=O)N1CCCC(N1)C(=O)OCC(C)(C)C2
IC50 (second compound 0.000949 µM): < 31.6 nM | IC50 (second compound 0.003 µM): < 31.6 nM | IC50 (second compound 0.00949 µM): < 31.6 nM | IC50 (second compound 0.03 µM): < 31.6 nM | IC50 (second compound 0.0949 µM): < 31.6 nM | IC50 (second compound 0.3 µM): < 31.6 nM | viability, T/C [3]: 28.7% | viability, T/C [4]: 30.9% | viability, T/C [25]: 22.4% | viability, T/C [26]: 34% | viability, T/C (second compound 0.000949 µM, first compound 3.16 µM): 33.6% | viability, T/C (second compound 0.000949 µM, first compound 10 µM): 24.5% | viability, T/C [7]: 27.8% | viability, T/C [8]: 24.4% | viability, T/C [27]: 22.4% | viability, T/C [28]: 24.9% | viability, T/C (second compound 0.003 µM, first compound 3.16 µM): 27.9% | viability, T/C (second compound 0.003 µM, first compound 10 µM): 20% | viability, T/C [11]: 19.1% | viability, T/C [12]: 15.5% | viability, T/C [29]: 21.6% | viability, T/C [30]: 21.9% | viability, T/C (second compound 0.00949 µM, first compound 3.16 µM): 19.7% | viability, T/C (second compound 0.00949 µM, first compound 10 µM): 17.9% | viability, T/C [15]: 14.1% | viability, T/C [16]: 16.5% | viability, T/C [31]: 17.1% | viability, T/C [32]: 15.4% | viability, T/C (second compound 0.03 µM, first compound 3.16 µM): 15.4% | viability, T/C (second compound 0.03 µM, first compound 10 µM): 14.9% | viability, T/C [19]: 13.6% | viability, T/C [20]: 15.7% | viability, T/C [33]: 14.3% | viability, T/C [34]: 14.3% | viability, T/C (second compound 0.0949 µM, first compound 3.16 µM): 11.7% | viability, T/C (second compound 0.0949 µM, first compound 10 µM): 13.6% | viability, T/C [23]: 13.8% | viability, T/C [24]: 13.7% | viability, T/C [35]: 15.6% | viability, T/C [36]: 13.8% | viability, T/C (second compound 0.3 µM, first compound 3.16 µM): 12.3% | viability, T/C (second compound 0.3 µM, first compound 10 µM): 11.9%
